PubChem BioAssay AID2080 (NMMLSC, 2009)
Activity calls are given as the source filed them. How the calls were made is not given here.

target: Bcl-2-related protein A1 (Homo sapiens) (UniProt Q16548); test: inhibitors of Bim binding to Bfl-1, confirmation, biochemical, multiplexed, bead-based flow cytometry, HTS hits (AID 2080); conditions: Bim peptide-Bfl-1 binding
Sequence (Q16548 whole entry, looked up): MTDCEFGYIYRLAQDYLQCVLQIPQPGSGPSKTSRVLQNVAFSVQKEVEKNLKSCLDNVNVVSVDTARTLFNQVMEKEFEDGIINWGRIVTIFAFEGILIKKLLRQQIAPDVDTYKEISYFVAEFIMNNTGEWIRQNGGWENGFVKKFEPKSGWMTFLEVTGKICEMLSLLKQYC

SMILES | EC50
COc1ccc(N2C(=O)C(Cl)=C(NC3C(=O)N(c4ccccc4)N(C)C3C)C2=O)cc1 (stereo not drawn) | 1240 nM

same assay, conditions: Bim peptide-Bfl-1 binding, at 100 µM (top of the series)

SMILES | inhibition of binding
CNC1CCC(Br)CC(C(=O)/C=C/c2cccc(OC)c2OC)C1=O (stereo not drawn) | inactive
O=c1c2c(n3nnnc3n1Cc1ccccc1)-c1ccccc1CC21CCCC1 | inactive
COc1cc(CNc2ccc3[nH]c(=O)[nH]c3c2)cc(Br)c1OCC(=O)NC(C)(C)C | inactive
O=C(/C=C/c1ccc(-c2ccccc2[N+](=O)[O-])o1)c1ccccc1 | inactive
Cc1ccc(C=NNC(=O)CSc2nnc(-c3ccc(Cl)cc3)n2-c2ccccc2)o1 | inactive
CCN(CC)C(=O)COC(=O)c1cc(-c2ccco2)nc2ccccc12 | inactive
Cc1ccc(-c2nc3c(c(=O)[nH]c(=O)n3Cc3ccccc3)n2C)o1 | inactive
O=C1c2ccccc2C(=O)N1CN(C(=O)COc1ccc(Cl)cc1Cl)c1cccc(F)c1 | inactive
O=C1NC(=O)C2(Cc3c(nc4ccccn4c3=O)N3CCCCCC32)C(=O)N1Cc1ccccc1 (stereo not drawn) | inactive
CCOc1ccccc1CNc1ccc(O)cc1 | inactive
CCN(CC)c1ccc(NC(=O)COc2ccccc2C)cc1S(=O)(=O)Nc1ccccc1OC | inactive
Cc1ccc(-c2cc(C(=O)Nc3nccs3)c3ccccc3n2)o1 | inactive
